Assay results published in US8859569B2, “Substituted annellated pyrimidines and use thereof” (Bayer Pharma Aktiengesellschaft, priority 2011, dated 2014).

How the values were obtained:
[1] = target: T1, recombinant guanylate cyclase reporter cell line (Rattus norvegicus, UniProt P19686+P20595); test: Action on recombinant guanylate cyclase reporter cell line; format: cell-based
T1 construct: expressed in transfected cells
T1 sequence (P20595 1-619): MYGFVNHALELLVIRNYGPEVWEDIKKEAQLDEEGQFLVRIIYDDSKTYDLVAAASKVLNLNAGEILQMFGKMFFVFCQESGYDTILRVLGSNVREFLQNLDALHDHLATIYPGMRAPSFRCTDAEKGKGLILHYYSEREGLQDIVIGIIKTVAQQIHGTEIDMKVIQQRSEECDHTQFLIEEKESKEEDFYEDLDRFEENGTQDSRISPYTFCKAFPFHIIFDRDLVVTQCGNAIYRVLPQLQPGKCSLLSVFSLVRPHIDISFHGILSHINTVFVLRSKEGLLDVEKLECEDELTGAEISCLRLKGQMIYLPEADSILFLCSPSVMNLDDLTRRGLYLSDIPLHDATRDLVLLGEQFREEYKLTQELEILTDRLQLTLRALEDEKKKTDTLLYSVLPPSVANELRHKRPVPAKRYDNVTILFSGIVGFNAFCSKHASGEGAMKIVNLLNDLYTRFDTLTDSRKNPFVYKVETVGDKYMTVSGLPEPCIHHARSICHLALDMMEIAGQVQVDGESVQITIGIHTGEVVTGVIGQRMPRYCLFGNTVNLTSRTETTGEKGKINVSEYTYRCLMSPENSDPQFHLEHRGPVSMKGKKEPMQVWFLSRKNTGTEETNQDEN
T1 sequence (P19686 1-690): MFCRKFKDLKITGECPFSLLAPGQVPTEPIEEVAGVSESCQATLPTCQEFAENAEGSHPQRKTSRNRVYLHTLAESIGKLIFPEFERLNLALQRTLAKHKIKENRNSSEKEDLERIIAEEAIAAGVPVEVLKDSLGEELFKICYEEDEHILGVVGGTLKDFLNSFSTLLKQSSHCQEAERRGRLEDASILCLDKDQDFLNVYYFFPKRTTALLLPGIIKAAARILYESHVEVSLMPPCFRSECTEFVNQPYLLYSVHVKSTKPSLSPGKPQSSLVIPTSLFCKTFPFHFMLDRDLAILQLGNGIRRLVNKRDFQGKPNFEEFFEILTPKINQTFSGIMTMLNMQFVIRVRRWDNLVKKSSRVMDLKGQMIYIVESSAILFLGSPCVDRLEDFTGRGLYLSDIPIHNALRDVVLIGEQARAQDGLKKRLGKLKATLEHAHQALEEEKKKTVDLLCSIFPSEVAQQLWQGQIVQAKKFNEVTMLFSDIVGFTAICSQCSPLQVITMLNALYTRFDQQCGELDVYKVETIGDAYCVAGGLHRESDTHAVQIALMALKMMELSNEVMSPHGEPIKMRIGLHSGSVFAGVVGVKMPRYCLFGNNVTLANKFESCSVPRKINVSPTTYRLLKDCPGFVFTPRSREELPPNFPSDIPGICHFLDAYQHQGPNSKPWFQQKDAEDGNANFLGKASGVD
Procedure: B-2. Action on Recombinant Guanylate Cyclase Reporter Cell Line
The cellular action of the compounds according to the invention is determined on a recombinant guanylate cyclase reporter cell line, as described in F. Wunder et al., Anal. Biochem. 339, 104-112 (2005).

[2] = target: T2, human phosphodiesterase 5 (PDE-5) (Homo sapiens, UniProt O76074); test: Inhibition of human phosphodiesterase 5 (PDE-5), SPA assay; format: biochemical; settings: PDE-5 preparation from human platelets, [8-3H]cGMP substrate
T2 construct: PDE-5 preparations are obtained from human platelets by lysis; from tissue; host or cells: human platelets
Procedure: B-6. Inhibition of Human Phosphodiesterase 5 (PDE-5)
PDE-5 preparations are obtained from human platelets by lysis (Microfluidizer®, 800 bar, 3 passages), followed by centrifugation (75000 g, 60 min, 4° C.) and ion-exchange chromatography of the supernatant on a Mono Q 10/10 column (linear sodium chloride gradient, elution with a 0.2-0.3M solution of sodium chloride in buffer (20 mM Hepes pH 7.2, 2 mM magnesium chloride). Fractions that have PDE-5 activity are combined (PDE-5 preparation) and stored at −80° C.
For determining their in-vitro action on human PDE-5, the test substances are dissolved in 100% DMSO and serial dilutions are prepared. Typically, dilution series (1:3) from 200 μM to 0.091 μM are prepared (resultant final concentrations in the test: 4 μM to 0.0018 μM). In each case 2 μL of the diluted solutions of the substance are put in the wells of microtitre plates (Isoplate-96/200W; Perkin-Elmer). Then 50 μL of a dilution of the PDE-5 preparation described above is added. The dilution of the PDE-5 preparation is selected so that during subsequent incubation less than 70% of the substrate is reacted (typical dilution: 1:100; dilution buffer: 50 mM Tris/hydrochloric acid pH 7.5, 8.3 mM magnesium chloride, 1.7 mM EDTA, 0.2% BSA). The substrate [8-^3H]cyclic guanosine-3′,5′-monophosphate (1 μCi/μL; Perkin-Elmer) is diluted 1:2000 with assay buffer (50 mM Tris/hydrochloric acid pH 7.5, 8.3 mM magnesium chloride, 1.7 mM EDTA) to a concentration of 0.0005 μCi/μL. The enzyme reaction is finally started by adding 50 μL (0.025 μCi) of the diluted substrate. The test preparations are incubated for 60 min at room temperature and the reaction is stopped by adding 25 μL of a suspension of 18 mg/mL of Yttrium Scintillation Proximity Beads in water (phosphodiesterase beads for SPA assays, RPNQ 0150, Perkin-Elmer). The microtitre plates are sealed with film and left to stand for 60 min at room temperature. Then the plates are measured for 30 s per well in a Microbeta scintillation counter (Perkin-Elmer). IC50 values are determined on the basis of the graphs plotted of the substance concentration versus the percentage PDE-5 inhibition.

## CC1(C)C(=O)Nc2nc(-c3nn(Cc4ccccc4F)c4ncccc34)nc(NCCn3ccnn3)c21 [Example 47, 2-[1-(2-fluorobenzyl)-1H-pyrazolo[3,4-b]pyridin-3-yl]-5,5-dimethyl-4-{[2-(1H-1,2,3-triazol-1-yl)ethyl]amino}-5,7-dihydro-6H-pyrrolo[2,3-d]pyrimidin-6-one]
[1]
  MEC (minimal effective concentration): 0.1 μm
[2]
  IC50: 0.083 µM

## Cn1ccc(CNc2nc(-c3nn(Cc4ccccc4F)c4ncccc34)nc3c2C(C)(C)C(=O)N3)n1 [Example 48, 2-[1-(2-fluorobenzyl)-1H-pyrazolo[3,4-b]pyridin-3-yl]-5,5-dimethyl-4-{[(1-methyl-1H-pyrazol-3-yl)methyl]amino}-5,7-dihydro-6H-pyrrolo[2,3-d]pyrimidin-6-one]
[1]
  MEC (minimal effective concentration): 0.1 μm
[2]
  IC50: 0.054 µM

## Cc1cc(Nc2nc(-c3nn(Cc4ccccc4F)c4ncccc34)nc3c2C(C)(C)C(=O)N3)nn1C [Example 50, 4-[(1,5-dimethyl-1H-pyrazol-3-yl)amino]-2-[1-(2-fluorobenzyl)-1H-pyrazolo[3,4-b]pyridin-3-yl]-5,5-dimethyl-5,7-dihydro-6H-pyrrolo[2,3-d]pyrimidin-6-one]
[1]
  MEC (minimal effective concentration): 0.1 μm
[2]
  IC50: 0.04 µM

## CC1(C)C(=O)Nc2nc(-c3nn(Cc4ccccc4F)c4ncccc34)nc(N[C@@H]3CCCOC3)c21 [Example 51, 2-[1-(2-fluorobenzyl)-1H-pyrazolo[3,4-b]pyridin-3-yl]-5,5-dimethyl-4-(tetrahydro-2H-pyran-3-ylamino)-5,7-dihydro-6H-pyrrolo[2,3-d]pyrimidin-6-one]
[1]
  MEC (minimal effective concentration): 0.03 μm
[2]
  IC50: 0.005 µM

## CC1(C)C(=O)Nc2nc(-c3nn(Cc4ccccc4F)c4ncccc34)nc(N3CCC(O)CC3)c21 [Example 52, 2-[1-(2-fluorobenzyl)-1H-pyrazolo[3,4-b]pyridin-3-yl]-4-(4-hydroxypiperidin-1-yl)-5,5-dimethyl-5,7-dihydro-6H-pyrrolo[2,3-d]pyrimidin-6-one]
[1]
  MEC (minimal effective concentration): 0.01 μm
[2]
  IC50: 0.034 µM

## COC1CN(c2nc(-c3nn(Cc4ccccc4F)c4ncccc34)nc3c2C(C)(C)C(=O)N3)C1 [Example 53, 2-[1-(2-fluorobenzyl)-1H-pyrazolo[3,4-b]pyridin-3-yl]-4-(3-methoxyazetidin-1-yl)-5,5-dimethyl-5,7-dihydro-6H-pyrrolo[2,3-d]pyrimidin-6-one]
[1]
  MEC (minimal effective concentration): 3.0 μm
[2]
  IC50: 0.15 µM

## CC1(C)C(=O)Nc2nc(-c3nn(Cc4ccccc4F)c4ncccc34)nc(NCc3ccccn3)c21 [Example 55, 2-[1-(2-fluorobenzyl)-1H-pyrazolo[3,4-b]pyridin-3-yl]-5,5-dimethyl-4-[(pyridin-2-ylmethyl)amino]-5,7-dihydro-6H-pyrrolo[2,3-d]pyrimidin-6-one]
[1]
  MEC (minimal effective concentration): 0.03 μm
[2]
  IC50: 0.13 µM

## COCCNc1nc(-c2nn(Cc3ccccc3F)c3ncccc23)nc2c1C(C)(C)C(=O)N2 [Example 56, 2-[1-(2-fluorobenzyl)-1H-pyrazolo[3,4-b]pyridin-3-yl]-4-[(2-methoxyethyl)amino]-5,5-dimethyl-5,7-dihydro-6H-pyrrolo[2,3-d]pyrimidin-6-one]
[1]
  MEC (minimal effective concentration): 0.03 μm
[2]
  IC50: 0.034 µM

## CC1(C)C(=O)Nc2nc(-c3nn(Cc4ccccc4F)c4ncccc34)nc(NCCn3cccn3)c21 [Example 58, 2-[1-(2-fluorobenzyl)-1H-pyrazolo[3,4-b]pyridin-3-yl]-5,5-dimethyl-4-{[2-(1H-pyrazol-1-yl)ethyl]amino}-5,7-dihydro-6H-pyrrolo[2,3-d]pyrimidin-6-one]
[1]
  MEC (minimal effective concentration): 0.03 μm
[2]
  IC50: 0.27 µM

## Cn1cc(CNc2nc(-c3nn(Cc4ccccc4F)c4ncccc34)nc3c2C(C)(C)C(=O)N3)cn1 [Example 59, 2-[1-(2-fluorobenzyl)-1H-pyrazolo[3,4-b]pyridin-3-yl]-5,5-dimethyl-4-{[(1-methyl-1H-pyrazol-4-yl)methyl]amino}-5,7-dihydro-6H-pyrrolo[2,3-d]pyrimidin-6-one]
[1]
  MEC (minimal effective concentration): 0.1 μm
[2]
  IC50: 0.008 µM

## Cn1ccnc1CNc1nc(-c2nn(Cc3ccccc3F)c3ncccc23)nc2c1C(C)(C)C(=O)N2 [Example 60, 2-[1-(2-fluorobenzyl)-1H-pyrazolo[3,4-b]pyridin-3-yl]-5,5-dimethyl-4-{[(1-methyl-1H-imidazol-2-yl)methyl]amino}-5,7-dihydro-6H-pyrrolo[2,3-d]pyrimidin-6-one]
[1]
  MEC (minimal effective concentration): 0.3 μm
[2]
  IC50: 0.43 µM

## CCN(CCOC)c1nc(-c2nn(Cc3ccccc3F)c3ncccc23)nc2c1C(C)(C)C(=O)N2 [Example 61, 4-[ethyl(2-methoxyethyl)amino]-2-[1-(2-fluorobenzyl)-1H-pyrazolo[3,4-b]pyridin-3-yl]-5,5-dimethyl-5,7-dihydro-6H-pyrrolo[2,3-d]pyrimidin-6-one]
[1]
  MEC (minimal effective concentration): 0.03 μm
[2]
  IC50: 0.1 µM

## Cc1nccn1-c1nc(-c2nn(Cc3ccccc3F)c3ncccc23)nc2c1C(C)(C)C(=O)N2 [Example 62, 2-[1-(2-fluorobenzyl)-1H-pyrazolo[3,4-b]pyridin-3-yl]-5,5-dimethyl-4-(2-methyl-1H-imidazol-1-yl)-5,7-dihydro-6H-pyrrolo[2,3-d]pyrimidin-6-one]
[1]
  MEC (minimal effective concentration): 0.1 μm
[2]
  IC50: 0.48 µM

## CC(C)CCNc1nc(-c2nn(Cc3ccccc3F)c3ncccc23)nc2c1C(C)(C)C(=O)N2 [Example 63, 2-[1-(2-fluorobenzyl)-1H-pyrazolo[3,4-b]pyridin-3-yl]-5,5-dimethyl-4-[(3-methylbutyl)amino]-5,7-dihydro-6H-pyrrolo[2,3-d]pyrimidin-6-one]
[1]
  MEC (minimal effective concentration): 0.03 μm
[2]
  IC50: 0.23 µM

## CC1(C)C(=O)Nc2nc(-c3nn(Cc4ccccc4F)c4ncccc34)nc(N3CCCC3)c21 [Example 64, 2-[1-(2-fluorobenzyl)-1H-pyrazolo[3,4-b]pyridin-3-yl]-5,5-dimethyl-4-(pyrrolidin-1-yl)-5,7-dihydro-6H-pyrrolo[2,3-d]pyrimidin-6-one]
[1]
  MEC (minimal effective concentration): 0.1 μm
[2]
  IC50: 0.98 µM

## CC1(C)C(=O)Nc2nc(-c3nn(Cc4ccccc4F)c4ncccc34)nc(Nc3cccnc3)c21 [Example 65, 2-[1-(2-fluorobenzyl)-1H-pyrazolo[3,4-b]pyridin-3-yl]-5,5-dimethyl-4-(pyridin-3-ylamino)-5,7-dihydro-6H-pyrrolo[2,3-d]pyrimidin-6-one]
[1]
  MEC (minimal effective concentration): 0.1 μm
[2]
  IC50: 0.43 µM
